≈ marks a conversion by molar mass, not a printed value. Where two headings read alike, the source gives them in different places.
What was measured:
COLON 26 = assay: Murine Colon 26 Advanced, Metastatic Tumor; type: in vivo, CD2F1 mice
Method: CD2F1 mice are injected i.p. with 5 x 10^5 tumor cells on Day 0 of the test. […] Positive drug response is indicated by a more than 25% increase in the mean life span (% ILS), relative to placebo treated controls. Drugs are considered to be toxic, when the mean life span of the drug treated animals is more than 15% shorter than placebo treated controls.

A2780 S = assay: two cell line test procedure (sulforhodamine B cytotoxicity), A2780 S; type: cell-based; settings: A2780 S cells, 48 hours exposure
Method: (§1) A2780 S and A2780 DDP cells [Biochemical and Molecular Properties of Cisplatin-resistant A2780 Cells Grown in Folinic Acid; Y. Lu, J. Hnan, and K. Scanlon, J. Biol. Chem., 263, 4891-4894, 1988.] are grown in RPMI 1640 medium containing 5% fetal calf serum, 50 µg/ml streptomycin, 50 units/ml penicillin, 50 µg/ml gentamycin, 0.03% L-glutamine, 1 nM estradiol, 1 nM testosterone, 5 µg/mlinsulin, 5 µg/ml transferrin, and 5 ng/ml selenous acid, at 37°C, in a humidified atmosphere, containing 5% CO2. Experiments are done in the same media.
(§2) Cells are plated at the concentration of 5 x 10^4/ml on Day 0 of the experiment. On Day one control cells are fixed with trichloroacetic acid and 5 ten fold dilutions of tested compounds are added, in duplicates, to the remaining cells. On Day 3 (48 hours exposure to drugs) all cells are fixed with trichloroacetic acid, stained with 0.4% sulforhodamine B, and absorbency is read at 520 nm. The IC50s (concentration causing 50% inhibition) are determined for each drug.

A2780 DDP = assay: two cell line test procedure (sulforhodamine B cytotoxicity), A2780 DDP; type: cell-based; settings: A2780 DDP (cisplatin-resistant) cells, 48 hours exposure
Method: as §1, §2

P388 [1] = assay: Murine P388 Leukemia; type: in vivo, CD2F1 mice
Method: CD2F1 mice are injected i.p. with 1 x 10^6 tumor cells on Day 0 of the test. Drugs are administered i.p. on Days 1, 5, and 9 after the tumor implantation. Positive drug response is indicated by a more than 25% increase in the mean life span (% ILS), relative to placebo treated controls. Drugs are considered to be toxic when the mean life span of the drug treated animals is more than 15% shorter than placebo treated controls.

LS174T = settings: days 1,5,9
Method: Human tumor fragments are implanted s.c. in athymic nude mice. Tumors are allowed to grow until they attain a mass of 100-150 mgs. […] Drugs are administered i.p. at Days 1, 5, and 9. Each mouse tumor mass is determined every 7 days, until Day 28, using caliper measurements of tumor length and width. Mean tumor mass for each group of animals is then calculated and the relative tumor growth determined. The relative tumor growth is defined as a ratio of the tumor mass on a given day to a tumor mass on Day 0. Calculation of % T/C (the relative tumor growth of treated group divided by the relative tumor growth of placebo group, multiplied by 100) is made for each day of measurement. A positive drug response is indicated by a % T/C value below 60%, and a p value in the Student t-test of less than 0.05. More than 20% deaths in the group related to the drug administration indicates toxicity.

[2] = reported by Denny et al.; cited from earlier work
[3] = reported by Denny et al.; cited from earlier work; remark: listed apart in the source
P388 [4] = settings: reported by Denny et al.; cited from earlier work
[5] = P388, 50 mg/kg i.p., days 1,5,9
[6] = P388, 100 mg/kg i.p., days 1,5,9
[7] = P388, 200 mg/kg i.p., days 1,5,9
[8] = COLON 26, 200 mg/kg i.p., days 5,9,13

SMILES: COc1cccc2c1C(=O)c1c(O)c3c(c(O)c1C2=O)C[C@@](O)(C(=O)CO)C[C@@H]3O[C@H]1C[C@H](N)[C@H](O)[C@H](C)O1 [Adriamycin, reference compound]
- % ILS (COLON 26; COLON 26, 4 mg/kg i.p., days 5,9,14): +71%

SMILES: CN(C)CCNC(=O)c1cccn2c(=O)c3cc(-c4cccc(N)c4)ccc3nc12 [Example 13, 11H-Pyrido[2,1-b]quinazoline-6-carboxamide, 2-(3-aminophenyl)-N-[2-(dimethyl-amino)ethyl]-11-oxo]
- IC50 (µg/ml) A2780 S (A2780 S): 0.40 µg/mL (≈ 0.996 µM)
- IC50 (µg/ml) A2780 DDP (A2780 DDP): 3.70 µg/mL (≈ 9.22 µM)
- % ILS (P388 [1]; [5]): +2%
- % ILS (P388 [1]; [6]): +20%
- % ILS (P388 [1]; [7]): +57%
- % ILS (COLON 26; COLON 26, 100 mg/kg i.p., days 5,9,13): +18%
- % ILS (COLON 26; [8]): +24%
- % ILS (COLON 26; COLON 26, 250 mg/kg i.p., days 5,9,13): +35%
- %T/C (LS174T; 250 mg/kg i.p.): 59 %T/C
- %T/C (LS174T; 300 mg/kg i.p.): 44 %T/C

SMILES: CN(C)CCNC(=O)c1cccn2c(=O)c3cc(-c4ccccc4-c4ccccc4)ccc3nc12 [Example 14, 11H-Pyrido[2,1-b]quinazoline-6-carboxamide, 2-[1,1'biphenyl]-2-yl-N-[2-(dimethylamino)ethyl]-11-oxo]
- IC50 (µg/ml) A2780 S (A2780 S): 4.40 µg/mL (≈ 9.51 µM)
- IC50 (µg/ml) A2780 DDP (A2780 DDP): 4.80 µg/mL (≈ 10.4 µM)

SMILES: CN(C)CCNC(=O)c1cccn2c(=O)c3cc(-c4cccc(-c5ccccc5)c4)ccc3nc12 [Example 15, 11H-Pyrido[2,1-b]quinazoline-6-carboxamide, 2-[1,1'-biphenyl]-3-yl-N-[2-(dimethylamino)ethyl]-11-oxo]
- IC50 (µg/ml) A2780 S (A2780 S): 0.60 µg/mL (≈ 1.3 µM)
- IC50 (µg/ml) A2780 DDP (A2780 DDP): 0.80 µg/mL (≈ 1.73 µM)
- % ILS (P388 [1]; [5]): +8%
- % ILS (P388 [1]; [6]): +2%
- % ILS (P388 [1]; P388, 200 mg/kg i.p., days 1,5): -40%

SMILES: CN(C)CCNC(=O)c1cccn2c(=O)c3cc(-c4cc5ccccc5c5ccccc45)ccc3nc12 [Example 16]
- IC50 (µg/ml) A2780 S (A2780 S): 4.10 µg/mL (≈ 8.43 µM)
- IC50 (µg/ml) A2780 DDP (A2780 DDP): 5.30 µg/mL (≈ 10.9 µM)

SMILES: CN(C)CCNC(=O)c1cccn2c(=O)c3cc(-c4cccc5ccccc45)ccc3nc12 [Example 17, 11H-pyrido[2,1-b)quinazoline-6-carboxamide, N-[2-(dimethylamino)ethyl]-2-(1-naphthalenyl)-11-oxo]
- IC50 (µg/ml) A2780 S (A2780 S): 4.60 µg/mL (≈ 10.5 µM)
- IC50 (µg/ml) A2780 DDP (A2780 DDP): 4.70 µg/mL (≈ 10.8 µM)

SMILES: CN(C)CCNC(=O)c1cccn2c(=O)c3cc(-c4cccc(C(F)(F)F)c4)ccc3nc12 [Example 18]
- IC50 (µg/ml) A2780 S (A2780 S): 1.10 µg/mL (≈ 2.42 µM)
- IC50 (µg/ml) A2780 DDP (A2780 DDP): 4.20 µg/mL (≈ 9.24 µM)

SMILES: COc1ccc(-c2ccc3nc4c(C(=O)NCCN(C)C)cccn4c(=O)c3c2)cc1 [Example 19, 11H-Pyrido[2,1-b]quinazoline-6-carboxamide, N-[2-(dimethylamino)ethyl]-2-(4-methoxyphenyl)-11-oxo]
- IC50 (µg/ml) A2780 S (A2780 S): 4.30 µg/mL (≈ 10.3 µM)
- IC50 (µg/ml) A2780 DDP (A2780 DDP): 3.40 µg/mL (≈ 8.16 µM)
- % ILS (P388 [1]; [5]): -9%
- % ILS (P388 [1]; [6]): +4%
- % ILS (P388 [1]; [7]): +6%

SMILES: CN(C)CCNC(=O)c1cccn2c(=O)c3cc(-c4cc(C(F)(F)F)cc(C(F)(F)F)c4)ccc3nc12 [Example 20, 11H-Pyrido[2,1-b]quinazoline-6-carboxamide, 2-[3,5-bis(trifluoromethyl)phenyl]-N-[2-(dimethylamino)ethyl]-11-oxo]
- IC50 (µg/ml) A2780 S (A2780 S): 3.80 µg/mL (≈ 7.27 µM)
- IC50 (µg/ml) A2780 DDP (A2780 DDP): 3.00 µg/mL (≈ 5.74 µM)

SMILES: CN(C)CCNC(=O)c1cccn2c(=O)c3cc(-c4cccc(N(C)C)c4)ccc3nc12 [Example 21, 11H-Pyrido[2,1-b]quinazoline-6-carboxamide, N-[2-(dimethylamino)ethyl]-2-[3-(dimethylamino)phenyl]-11-oxo]
- IC50 (µg/ml) A2780 S (A2780 S): 0.20 µg/mL (≈ 0.466 µM)
- IC50 (µg/ml) A2780 DDP (A2780 DDP): 0.50 µg/mL (≈ 1.16 µM)

SMILES: Cl.Cl.Cl.Nc1cccc(-c2ccc3nc4c(C(=O)NCCNCCO)cccn4c(=O)c3c2)c1 [Example 24, 11H-Pyrido [2,1-b]quinazoline-6-carboxamide, 2-(3-aminophenyl)-N-[2-[(2-hydroxyethyl)amino]ethyl]-11-oxo-trihydrochloride]
- IC50 (µg/ml) A2780 S (A2780 S): 0.60 µg/mL
- IC50 (µg/ml) A2780 DDP (A2780 DDP): 2.10 µg/mL
- % ILS (P388 [1]; P388, 25 mg/kg i.p., days 1,5,9): +12%
- % ILS (P388 [1]; [5]): +4%
- % ILS (P388 [1]; [6]): +4%
- % ILS (P388 [1]; [7]): 0%
- % ILS (COLON 26; [8]): +24%
- % ILS (COLON 26; COLON 26, 300 mg/kg i.p., days 5,9,13): -24%

SMILES: Cl.Cl.O=C(NCCNCCO)c1cccn2c(=O)c3cc(-c4ccccc4)ccc3nc12 [Example 26, 11H-pyrido[2,1-b]quinazoline-6-carboxamide, N-[2-[(2-hydroxyethyl)amino]-ethyl]-11-oxo-2-phenyl, dihydrochloride]
- IC50 (µg/ml) A2780 S (A2780 S): 0.80 µg/mL
- IC50 (µg/ml) A2780 DDP (A2780 DDP): 3.50 µg/mL

SMILES: Cl.Cl.Cl.Nc1ccccc1-c1ccc2nc3c(C(=O)NCCNCCO)cccn3c(=O)c2c1 [Example 30, 11H-Pyrido[2,1-b]quinazoline-6-carboxamide, 2-(2-aminophenyl)-N-[2-[(2-hydroxyethyl)amino]ethyl]-11-oxo-trihydrochloride]
- IC50 (µg/ml) A2780 S (A2780 S): 4.80 µg/mL
- IC50 (µg/ml) A2780 DDP (A2780 DDP): 6.90 µg/mL

SMILES: CN(C)CCNC(=O)c1cccn2c(=O)c3ccc(-c4cccc(N)c4)cc3nc12 [Example 35, 11H-Pyrido[2,1-b]quinazoline-6-carboxamide, 3-(3-aminophenyl)-N-[2-(dimethylamino)ethyl]-11-oxo]
- IC50 (µg/ml) A2780 S (A2780 S): 0.50 µg/mL (≈ 1.25 µM)
- IC50 (µg/ml) A2780 DDP (A2780 DDP): 0.40 µg/mL (≈ 0.996 µM)

SMILES: CN(C)CCNC(=O)c1cccn2c(=O)c3ccccc3nc12 [I, N-[2-(dimethylamino)ethyl]-11-oxo-11H-pyrido[2,1-b]quinalzoline-6-carboxamide]
- in vitro activity [2]: some in vitro activity
- mutagenic activity [3]: mutagenic activity
- activity in a P388 mouse model (P388 [4]): inactive

SMILES: CC[C@]1(O)C[C@H]2CN(CCc3c([nH]c4ccccc34)[C@@](C(=O)OC)(c3cc4c(cc3OC)N(C=O)[C@H]3[C@@](O)(C(=O)OC)[C@H](OC(C)=O)[C@]5(CC)C=CCN6CC[C@]43[C@@H]65)C2)C1 [Vincristine, reference compound]
- % ILS (P388 [1]; P388, 0.8 mg/kg i.p., days 1,5,9): +114%
- %T/C (LS174T; 1.0 mg/kg i.p.): 52 %T/C
